In patent publication US20230192878A1, “METHODS, THERAPIES AND USES FOR TREATING CANCER” (PFIZER INC., priority 2020, published 2023):

Tests used:
Raji = test: Cell surface BCMA expression after GSI, concentration series, lymphoma cells; type: cell-based; conditions: 24 hours, ± SD
Description: Lymphoma cells (Raji cell line) were seeded in a 96-well U bottom plate at 40,000 cells/well. Cells were incubated for 24 hours in the presence of GSI diluted in RPMI medium (0.1% DMSO). The following concentrations of the GSI were tested: 1000 nM, 500 nM, 100 nM, 50 nM, 25 nM, 10 nM, 5 nM, 2.5 nM, 1 nM, 0.1 nM, 0.01 nM. 24 hours later cells were collected and washed with PBS+2% FBS, followed by staining with ZombieNIR Viability Dye (Biolegend) at 1 in 500 dilution in PBS at room temperature for 20 minutes. Next, cells were washed with PBS+2% FBS and stained with anti-BCMA PE-labelled antibody (Biolegend) diluted in PBS+2% FBS for 30 minutes at 4° C. Cells were acquired on BD Flow Cytometer and analyzed using FlowJo flow cytometry analysis software. Dead cells were removed from the analysis by gating on ZombieNIR negative population. BCMA MFI was plotted against GSI concentration to establish EC50.

H929 = test: Soluble BCMA (sBCMA) shedding after GSI (ELISA); type: cell-based, Human; set-up: unit not given here; conditions: Table 6 (sBCMA in supernatant, ELISA), 24 hours
Description: (§1) Multiple myeloma cells (MM.1S, OPM2, H929, Molp8, RPMI8226) were seeded in a 96-well U-bottom plate at 40,000 cells/well. Cells were incubated for 24 hours in the presence of GSI diluted in RPMI medium (0.1% DMSO). The following concentrations of the GSI were tested: 1000 nM, 500 nM, 100 nM, 50 nM, 25 nM, 10 nM, 5 nM, 2.5 nM, 1 nM, 0.1 nM, 0.01 nM. After 24 hours, cell culture medium was collected and concentration of sBCMA was measured in supernatants using Human BCMA/TNFRSF17 DuoSet ELISA kit (R&D Systems) according to manufacturer's instructions.

RPMI8226 = test: Soluble BCMA (sBCMA) shedding after GSI (ELISA); type: cell-based, Human; set-up: unit not given here; conditions: Table 6 (sBCMA in supernatant, ELISA), 24 hours
Description: as §1

[1] = Preliminary pharmacokinetic (PK) analysis, Phase 1 study; type: in vivo, human
Description: Therefore, a fixed dose is suitable for the dosing of PF-06863135. Based on the encouraging efficacy data and safety data obtained from Part I of Study, a promising RP2D for Part 2A of the study could be a fixed dose equivalent of 1000 μg/kg (i.e., 76 mg) of PF-06863135 either in Q1W or Q2W. A fixed dose equivalent of 600 μg/kg (ie, 44 mg) will likely be used as a priming dose on cycle zero day 1. The initial dose of 44 mg serves as a priming dose and is designed to mitigate the CRS symptoms of the later 76 mg dose. […] Subsequently, the 44 mg (priming) and 76 mg (maintenance) were selected as the single agent RP2D dose. Patient will be administered a single priming dose of 44 mg SC of PF06863135, followed by maintenance dosing of 76 mg Q1W SC or 76 mg Q2W starting 7 days after the single priming dose.

MM.1S-PD-L1 = test: Subcutaneous MM.1S-PD-L1 multiple myeloma mouse model; type: in vivo; conditions: alone or +anti-PD-1 5 mg/kg, dosing from Day 21
Description: MM.1S multiple myeloma cells were engineered to express PD-L1 and are referred to as MM.1S-PD-L1. Pre-activated and expanded T cells (20×10^6) were administered on Day 19 after MM.1S-PDL1 tumor cell inoculation subcutaneously (SC). BCMAxCD3 bispecific (0.3 or 1 mg/kg) or negative bispecific (1 mg/kg) was administered IV on Day 21 and dosed Q7Dx3. Anti-PD-1 mAb was administered at 5 mg/kg intraperitoneally (IP) twice a week starting on Day 21. Tumor measurements were recorded 2 to 3 times a week using digital calipers. N (at study start) is 5-12 animals per group.

CCC[C@H](N[C@H]1CCc2cc(F)cc(F)c2C1)C(=O)Nc1cn(C(C)(C)CNCC(C)(C)C)cn1 [GSI, nirogacestat]
BCMA MFI (Raji; GSI 0.01 nM): 142.5 ± 0.8
BCMA MFI (Raji; GSI 0.10 nM): 147.5 ± 20.6
BCMA MFI (Raji; GSI 1.00 nM): 398 ± 34
BCMA MFI (Raji; GSI 2.50 nM): 469 ± 31.2
BCMA MFI (Raji; GSI 5.00 nM): 484 ± 43.9
BCMA MFI (Raji; GSI 10.00 nM): 515.5 ± 47.4
BCMA MFI (Raji; GSI 25.00 nM): 532 ± 42.5
BCMA MFI (Raji; GSI 50.00 nM): 535 ± 65.1
BCMA MFI (Raji; GSI 100.00 nM): 498.5 ± 20.6
BCMA MFI (Raji; GSI 500.00 nM): 568.5 ± 50.3
BCMA MFI (Raji; GSI 1000.00 nM): 534.5 ± 67.2
BCMA (-PE) MFI (H929; H929, GSI 0.01 nM): 24084.8
BCMA (-PE) MFI (H929; H929, GSI 0.1 nM): 27414.8
BCMA (-PE) MFI (H929; H929, GSI 1 nM): 19516.4
BCMA (-PE) MFI (H929; H929, GSI 2.5 nM): 12874.8
BCMA (-PE) MFI (H929; H929, GSI 5 nM): 8438.2
BCMA (-PE) MFI (H929; H929, GSI 10 nM): 4901.7
BCMA (-PE) MFI (H929; H929, GSI 25 nM): 2336.4
BCMA (-PE) MFI (H929; H929, GSI 50 nM): 1460.7
BCMA (-PE) MFI (H929; H929, GSI 100 nM): 1110.6
BCMA (-PE) MFI (H929; H929, GSI 500 nM): 716.5
BCMA (-PE) MFI (H929; H929, GSI 1000 nM): 625.1
BCMA (-PE) MFI (RPMI8226; RPMI8226, GSI 0.01 nM): 4710.8
BCMA (-PE) MFI (RPMI8226; RPMI8226, GSI 0.1 nM): 3333.8
BCMA (-PE) MFI (RPMI8226; RPMI8226, GSI 1 nM): 2647.5
BCMA (-PE) MFI (RPMI8226; RPMI8226, GSI 2.5 nM): 2398
BCMA (-PE) MFI (RPMI8226; RPMI8226, GSI 5 nM): 2525.6
BCMA (-PE) MFI (RPMI8226; RPMI8226, GSI 10 nM): 1926.2
BCMA (-PE) MFI (RPMI8226; RPMI8226, GSI 25 nM): 836.5
BCMA (-PE) MFI (RPMI8226; RPMI8226, GSI 50 nM): 249.5
BCMA (-PE) MFI (RPMI8226; RPMI8226, GSI 100 nM): 64.1
BCMA (-PE) MFI (RPMI8226; RPMI8226, GSI 500 nM): 0 ± 0
BCMA (-PE) MFI (RPMI8226; RPMI8226, GSI 1000 nM): 0 ± 0

PF-06863135: heterodimeric humanized full-length bispecific antibody with one BCMA binding arm and one CD3 binding arm
Effect of body weight on PF-06863135 exposure [1]: not a clinically relevant factor
Tumor Volume ± SEM (MM.1S-PD-L1; day 14 post tumor cell inoculation, BCMA × CD3 bispecific 0.3 mg/kg): 34.4 ± 9.5 mm^3
Tumor Volume ± SEM (MM.1S-PD-L1; day 14 post tumor cell inoculation, BCMA × CD3 bispecific 1 mg/kg): 26.4 ± 7.5 mm^3
Tumor Volume ± SEM (MM.1S-PD-L1; day 18 post tumor cell inoculation, BCMA × CD3 bispecific 0.3 mg/kg): 91.6 ± 18 mm^3
Tumor Volume ± SEM (MM.1S-PD-L1; day 18 post tumor cell inoculation, BCMA × CD3 bispecific 1 mg/kg): 92 ± 17.1 mm^3
Tumor Volume ± SEM (MM.1S-PD-L1; day 20 post tumor cell inoculation, BCMA × CD3 bispecific 0.3 mg/kg): 122.5 ± 20.7 mm^3
Tumor Volume ± SEM (MM.1S-PD-L1; day 20 post tumor cell inoculation, BCMA × CD3 bispecific 1 mg/kg): 130.7 ± 24.6 mm^3
Tumor Volume ± SEM (MM.1S-PD-L1; day 25 post tumor cell inoculation, BCMA × CD3 bispecific 0.3 mg/kg): 403 ± 59 mm^3
Tumor Volume ± SEM (MM.1S-PD-L1; day 25 post tumor cell inoculation, BCMA × CD3 bispecific 1 mg/kg): 601.1 ± 70^ mm^3
Tumor Volume ± SEM (MM.1S-PD-L1; day 28 post tumor cell inoculation, BCMA × CD3 bispecific 0.3 mg/kg): 403.3 ± 67.6 mm^3
Tumor Volume ± SEM (MM.1S-PD-L1; day 28 post tumor cell inoculation, BCMA × CD3 bispecific 1 mg/kg): 482.9 ± 32.6 mm^3
Tumor Volume ± SEM (MM.1S-PD-L1; day 32 post tumor cell inoculation, BCMA × CD3 bispecific 0.3 mg/kg): 603.6 ± 151.6 mm^3
Tumor Volume ± SEM (MM.1S-PD-L1; day 32 post tumor cell inoculation, BCMA × CD3 bispecific 1 mg/kg): 410.5 ± 82.7 mm^3
Tumor Volume ± SEM (MM.1S-PD-L1; day 35 post tumor cell inoculation, BCMA × CD3 bispecific 0.3 mg/kg): 835.1 ± 77.2 mm^3
Tumor Volume ± SEM (MM.1S-PD-L1; day 35 post tumor cell inoculation, BCMA × CD3 bispecific 1 mg/kg): 627.9 ± 111.8 mm^3
Tumor Volume ± SEM (MM.1S-PD-L1; day 39 post tumor cell inoculation, BCMA × CD3 bispecific 0.3 mg/kg): 1569.3 ± 151.8 mm^3
Tumor Volume ± SEM (MM.1S-PD-L1; day 39 post tumor cell inoculation, BCMA × CD3 bispecific 1 mg/kg): 1436.8 ± 276.4 mm^3
